These results are taken from publication PMC7616177, “From structure to clinic: Design of a muscarinic M1 receptor agonist with the potential to treat Alzheimer’s disease” (Cell, 2021).

In data set [1] the test system is dogs. Kind of data set: Safety pharmacology and toxicology clinical signs, dog.
Data set [2] has as its system rats. Kind of data set: Safety pharmacology and toxicology clinical signs, rat. The data set is classed as in vivo. The source says: The rat and dog were appropriate species in which to conduct nonclinical safety evaluation and HTL9936. Male and female rates of the RccHan: WIST strain were obtained from Harlan, Bicester, UK. and the animals were approximately seven to eight weeks old at the start of dosing. Throughout the study the animals had access ad libitum to SQC Rat and Mouse Maintenance Diet No 1, Expanded, (Special Diets Services Ltd, Witham, UK). […] The temperature and relative humidity ranges were maintained in the specified ranges of 20 to 24°C and 45 to 65%, respectively.

Data set [3] relates to Wistar rats. Kind of data set: Open field exploratory behaviour. The data set is classed as in vivo. The settings on record: rat. As to the method:
During the rat passive avoidance testing, open field exploratory behavior was measured on study days 4 and 5 (acclimatisation and handling), 6 (training) and 7 (recall). The open field apparatus consisted of black-painted Perspex 620 mm^2 with walls 300 mm high. Locomotor activity, measured as the distance traveled in a 300 s period, as well as incidences of rearing and grooming were recorded, using Ethovision XT tracking software (Noldus UK).

Data set [4] deals with T1, M4-receptor (Homo sapiens, UniProt P08173).
T1 sequence (P08173 1-479): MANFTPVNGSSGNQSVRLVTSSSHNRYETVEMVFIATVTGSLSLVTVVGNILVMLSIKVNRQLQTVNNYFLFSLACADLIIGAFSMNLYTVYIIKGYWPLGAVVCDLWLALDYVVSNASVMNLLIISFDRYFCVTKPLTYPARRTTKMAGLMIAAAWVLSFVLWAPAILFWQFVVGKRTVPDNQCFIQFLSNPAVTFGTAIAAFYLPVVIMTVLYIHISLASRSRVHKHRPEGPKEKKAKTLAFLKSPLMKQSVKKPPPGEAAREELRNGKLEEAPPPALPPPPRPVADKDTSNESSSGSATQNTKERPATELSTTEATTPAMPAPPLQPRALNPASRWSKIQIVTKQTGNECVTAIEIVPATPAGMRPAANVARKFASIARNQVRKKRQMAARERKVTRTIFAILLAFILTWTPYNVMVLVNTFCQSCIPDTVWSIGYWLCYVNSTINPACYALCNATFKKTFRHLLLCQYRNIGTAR
Kind of data set: M4-receptor functional agonist assay. The data set is classed as cell-based. Details: expressed in transfected cells. As to the method: Functional assays were performed using the Alphascreen Surefire phopho-ERK1/2 assay. […] Once adhered, cells were serum starved overnight. Agonist stimulation was performed by the addition of […] agonist to the cells for a pre-optimized 5 min period (37°C). Media was removed and 50 μl of lysis buffer added. After 15 min a 4 μl sample was transferred to a 384-well plate and 7 μl of detection mixture added.

The nature of data set [5]: Dog plasma and CSF exposure after subcutaneous dosing. The data set is classed as in vivo. The settings on record: sc; for concentration at 4 h: CSF, aged beagle, 4 h post-dose, read-out: Measured Ccsf concentration.

Like-named read-outs stand apart in the source and are kept apart here.

`CCOC(=O)N1CCC[C@H](N2CCC(C(=O)NC3(C)CCC3)CC2)CC1` [HTL9936, ethyl (S)-4-(4-((1-methylcyclobutyl)carbamoyl)piperidin-1-yl)azepane-1-carboxylate]: in data set [1], the “Cu,pl above which clinical signs were observed” value is 283 nM and the “Plasma exposure above which salivation, vomiting, lacrimation were observed” value is reported as “exceeded 157 ng/mL”. Further, in data set [2], the “Cu,pl without cholinergic clinical signs” value is 1,372 nM and the “Plasma exposure without cholinergic clinical signs” value is reported as “up to 732 ng/mL”. Moreover, in data set [3], the Open-field exploratory behavior result was “no difference in effect”. In data set [4], the midpoint of the response, the EC50, lay at 398 nM and the M4-receptor agonist activity result is recorded as “partial agonist activity”. Moreover, the concentration at 4 h in data set [5] (0.3 mg/kg s.c.) was determined as 13 nM. Also, in data set [5] (1 mg/kg s.c.), the concentration at 4 h was determined as 48 nM. Besides, the concentration at 4 h in data set [5] (2 mg/kg s.c.) amounted to 128 nM. The Cmax in data set [5] (plasma, aged beagle DNMP study, 0.3 mg/kg subcutaneous, read-out: Cmax plasma exposure at minimal effective dose) is 58 ng/mL.
